Counter-ions that a name gives are not always drawn.
These compounds were tested against T1, recombinant guanylate cyclase reporter cell line (Rattus norvegicus, UniProt P19686+P20595) (assay: B-2. Action on recombinant guanylate cyclase reporter cell line). Conditions: MEC = minimal effective concentration; in some cases mean values from individual determinations.
T1 construct: expressed in transfected cells
T1 sequence (P20595 1-619): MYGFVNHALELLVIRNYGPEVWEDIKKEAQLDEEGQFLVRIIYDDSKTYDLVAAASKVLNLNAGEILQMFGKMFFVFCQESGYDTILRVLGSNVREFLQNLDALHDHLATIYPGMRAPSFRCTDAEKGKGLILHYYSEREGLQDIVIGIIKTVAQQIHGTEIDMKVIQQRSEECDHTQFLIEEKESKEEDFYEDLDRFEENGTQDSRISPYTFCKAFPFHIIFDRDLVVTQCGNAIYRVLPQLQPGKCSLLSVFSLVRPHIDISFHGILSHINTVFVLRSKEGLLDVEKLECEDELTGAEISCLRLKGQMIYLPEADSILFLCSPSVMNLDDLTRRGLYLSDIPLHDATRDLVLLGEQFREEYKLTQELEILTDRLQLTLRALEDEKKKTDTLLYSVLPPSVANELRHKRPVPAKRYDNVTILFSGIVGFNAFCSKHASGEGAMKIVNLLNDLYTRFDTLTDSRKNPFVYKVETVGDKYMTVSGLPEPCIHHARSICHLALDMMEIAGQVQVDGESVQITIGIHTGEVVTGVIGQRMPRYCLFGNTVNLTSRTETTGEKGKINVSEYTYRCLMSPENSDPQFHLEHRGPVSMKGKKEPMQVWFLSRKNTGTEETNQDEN
T1 sequence (P19686 1-690): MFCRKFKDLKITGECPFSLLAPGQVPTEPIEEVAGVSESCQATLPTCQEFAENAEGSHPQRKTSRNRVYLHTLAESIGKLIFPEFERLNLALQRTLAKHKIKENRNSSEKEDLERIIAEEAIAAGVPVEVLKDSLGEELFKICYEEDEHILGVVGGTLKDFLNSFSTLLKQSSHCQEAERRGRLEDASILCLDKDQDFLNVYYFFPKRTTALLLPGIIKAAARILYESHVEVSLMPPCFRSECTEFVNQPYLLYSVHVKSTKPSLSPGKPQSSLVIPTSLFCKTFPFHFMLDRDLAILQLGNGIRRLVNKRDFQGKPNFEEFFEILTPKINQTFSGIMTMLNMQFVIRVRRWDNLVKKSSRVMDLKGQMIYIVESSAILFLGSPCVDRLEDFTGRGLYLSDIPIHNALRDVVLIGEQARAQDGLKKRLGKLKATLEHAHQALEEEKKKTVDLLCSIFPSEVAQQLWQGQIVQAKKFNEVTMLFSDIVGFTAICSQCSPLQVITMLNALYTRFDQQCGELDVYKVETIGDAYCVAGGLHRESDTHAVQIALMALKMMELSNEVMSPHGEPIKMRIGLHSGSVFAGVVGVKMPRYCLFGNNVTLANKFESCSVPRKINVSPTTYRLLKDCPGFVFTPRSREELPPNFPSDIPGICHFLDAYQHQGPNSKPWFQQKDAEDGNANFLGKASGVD
Type: cell-based
Outline: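 Whole-cell reporter assay with recombinant guanylate cyclase; endpoint = minimal effective concentration.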

MEC [µM] | SMILES
0.10 | Cc1nc2c(OCc3c(F)cccc3F)cc(Cl)cn2c1C(=O)NCCN1CCC(F)(F)CC1 [Example 151, 6-chloro-8-[(2,6-difluorobenzyl)oxy]-N-[2-(4,4-difluoropiperidin-1-yl)ethyl]-2-methylimidazo[1,2-a]pyridine-3-carboxamide]
1.00 | Cc1cc(OCc2c(F)cccc2F)c2nc(C)c(C(=O)NC(CN)c3ccc4ccccc4c3)n2c1 (racemic) [Example 379, rac-N-[2-amino-1-(2-naphthyl)ethyl]-8-[(2,6-difluorobenzyl)oxy]-2,6-dimethylimidazo[1,2-a]pyridine-3-carboxamide]
3.00 | Cc1cc(OCc2c(F)cccc2F)c2nc(C)c(C(=O)NCC(N)c3ccc4c(c3)OCCO4)n2c1 (racemic) [Example 371, rac-N-[2-amino-2-(2,3-dihydro-1,4-benzodioxin-6-yl)ethyl]-8-[(2,6-difluorobenzyl)oxy]-2,6-dimethylimidazo[1,2-a]pyridine-3-carboxamide]
0.30 | Cc1nc2c(OCc3c(F)cccc3F)cc(Cl)cn2c1C(=O)NCC1(N)CCC1 [Example 155, N-[(1-aminocyclobutyl)methyl]-6-chloro-8-[(2,6-difluorobenzyl)oxy]-2-methylimidazo[1,2-a]-pyridine-3-carboxamide trifluoroacetate]
1.00 | COc1ccc(F)c(COc2cc(C)cn3c(C(=O)NCC(C)(N)CF)c(C)nc23)c1F (stereo not drawn) [Example 361, ent-N-(2-amino-3-fluoro-2-methylpropyl)-8-[(2,6-difluoro-3-methoxybenzyl)oxy]-2,6-dimethylimidazo[1,2-a]pyridine-3-carboxamide]
1.00 | Cc1cc(OCc2c(F)cccc2F)c2nc(C)c(C(=O)NCC(C)(C)NCCO)n2c1 [Example 349, 8-[(2,6-Difluorobenzyl)oxy]-N-{2-[(2-hydroxyethyl)amino]-2-methylpropyl}-2,6-dimethylimidazo[1,2-a]pyridine-3-carboxamide]
0.40 | Cc1nc2c(OCc3c(F)cccc3F)cccn2c1C(=O)NCC1(N)CC1 [Example 38, N-[(1-aminocyclopropyl)methyl]-8-[(2,6-difluorobenzyl)oxy]-2-methylimidazo[1,2-a]-pyridine-3-carboxamide]
1.00 | COCC(N)CNC(=O)c1c(C)nc2c(OCc3c(F)cccc3F)cc(C)cn12 (single isomer, unassigned) [Example 243, ent-N-(2-Amino-3-methoxypropyl)-8-[(2,6-difluorobenzyl)oxy]-2,6-dimethylimidazo[1,2-a]-pyridine-3-carboxamide]
0.10 | Cc1cc(OCc2c(F)ccc(F)c2F)c2nc(C)c(C(=O)NCC(C)(N)CCC(F)(F)F)n2c1 (single isomer, unassigned; enantiomer a) [Example 410, ent-N-(2-amino-5,5,5-trifluoro-2-methylpentyl)-2,6-dimethyl-8-[(2,3,6-trifluorobenzyl)oxy]imidazo[1,2-a]pyridine-3-carboxamide (Enantiomer A)]
0.3 | CCCC(C)(N)CNC(=O)c1c(C)nc2c(OCc3c(F)cccc3F)cc(C(F)F)cn12 (single isomer, unassigned; enantiomer b) [Example 289, ent-N-(2-amino-2-methylpentyl)-8-[(2,6-difluorobenzyl)oxy]-6-(difluoromethyl)-2-methylimidazo[1,2-a]pyridine-3-carboxamide Formate (Enantiomer B)]
1.00 | Cc1nc2c(OCc3c(F)cccc3F)cccn2c1C(=O)NCC(C)N1CCOCC1 (single isomer, unassigned; ent-8) [Example 181, ent-8-[(2,6-Difluorobenzyl)oxy]-2-methyl-N-[2-(morpholin-4-yl)propyl]imidazo[1,2-a]pyridine-3-carboxamide]
1.00 | Cc1cc(OCc2c(F)cccc2F)c2nc(C)c(C(=O)NCCN3CCN(C)CC3)n2c1 [Example 137, 8-[(2,6-difluorobenzyl)oxy]-2,6-dimethyl-N-[2-(4-methylpiperazin-1-yl)ethyl]imidazo[1,2-a]-pyridine-3-carboxamide]

More lines, now with the values behind:

SMILES | MEC [µM]
Cc1cc(OCc2c(F)cccc2F)c2nc(C)c(C(=O)NCC3CNCCO3)n2c1 (racemic) [Example 345, rac-8-[(2,6-Difluorobenzyl)oxy]-2,6-dimethyl-N-(morpholin-2-ylmethyl)imidazo[1,2-a]pyridine-3-carboxamide] | 1.00
CCCC(C)(N)CNC(=O)c1c(C)nc2c(OCc3c(F)ccc(F)c3F)cc(C)cn12 (single isomer, unassigned) [Example 304, ent-N-(2-amino-2-methylpentyl)-2,6-dimethyl-8-[(2,3,6-trifluorobenzyl)oxy]imidazo[1,2-a]pyridine-3-carboxamide] | 0.10
Cc1cc(OCc2c(F)cccc2F)c2nc(C)c(C(=O)NCC(N)C#N)n2c1 (racemic) [Example 400, rac-N-(2-amino-2-cyanoethyl)-8-[(2,6-difluorobenzyl)oxy]-2,6-dimethylimidazo[1,2-a]pyridine-3-carboxamide] | 0.65
Cc1nc2c(OCc3c(F)cccc3F)cccn2c1C(=O)NCC(C)(C)N(C)C [Example 145, 8-[(2,6-difluorobenzyl)oxy]-N-[2-(dimethylamino)-2-methylpropyl]-2-methylimidazo[1,2-a]pyridine-3-carboxamide] | 3.00
Cc1cc(OCc2c(F)cccc2F)c2nc(C)c(C(=O)NC3CCCC(N)C3)n2c1 (stereo not drawn) [Example 160, N-(3-aminocyclohexyl)-8-[(2,6-difluorobenzyl)oxy]-2,6-dimethylimidazo[1,2-a]-pyridine-3-carboxamide] | 1.00
Cc1cc(OCc2c(F)cccc2F)c2nc(C)c(C(=O)NCC(N)c3csc4ccccc34)n2c1 (racemic) [Example 373, rac-N-[2-amino-2-(1-benzothiophen-3-yl)ethyl]-8-[(2,6-difluorobenzyl)oxy]-2,6-dimethylimidazo[1,2-a]pyridine-3-carboxamide] | 3.00
COCC(C)(N)CNC(=O)c1c(C)nc2c(OCc3c(F)cccc3F)cc(Cl)cn12 (racemic) [Example 159, rac-N-(2-amino-3-methoxy-2-methylpropyl)-6-chloro-8-[(2,6-difluorobenzyl)oxy]-2-methylimidazo[1,2-a]pyridine-3-carboxamide] | 0.30
Cc1cc(OCc2c(F)cccc2F)c2nc(C)c(C(=O)NCC(N)c3cccc(OC(F)F)c3)n2c1 (racemic) [Example 375, rac-N-{2-amino-2-[3-(difluoromethoxy)phenyl]ethyl}-8-[(2,6-difluorobenzyl)oxy]-2,6-dimethylimidazo[1,2-a]pyridine-3-carboxamide] | 3.00
Cc1cc(OCc2c(F)cccc2F)c2nc(C)c(C(=O)NCC(N)c3cccc(OC(F)(F)F)c3)n2c1 (racemic) [Example 377, rac-N-{2-amino-2-[3-(trifluoromethoxy)phenyl]ethyl}-8-[(2,6-difluorobenzyl)oxy]-2,6-dimethylimidazo[1,2-a]pyridine-3-carboxamide] | 3.00
Cc1nc2c(OCc3c(F)cccc3F)cc(Cl)cn2c1C(=O)NCCN1CCN(C)CC1 [Example 154, 6-chloro-8-[(2,6-difluorobenzyl)oxy]-2-methyl-N-[2-(4-methylpiperazin-1-yl)ethyl]imidazo[1,2-a]pyridine-3-carboxamide] | 1.00
Cc1cc(OCc2c(F)cccc2F)c2nc(C)c(C(=O)NCC(N)c3csc(C)n3)n2c1 (racemic) [Example 415, rac-N-[2-amino-2-(2-methyl-1,3-thiazol-4-yl)ethyl]-8-[(2,6-difluorobenzyl)oxy]-2,6-dimethylimidazo[1,2-a]pyridine-3-carboxamide Triformate] | 5.5
Cc1nc2c(OCc3c(F)cccc3F)cccn2c1C(=O)NCC(C)(N)CO (racemic) [Example 273, rac-N-(2-Amino-3-hydroxy-2-methylpropyl)-8-[(2,6-difluorobenzyl)oxy]-2-methylimidazo[1,2-a]-pyridine-3-carboxamide] | 1.00
